Laboratory results taken from PubChem BioAssay AID256 (DTP/NCI, 2004).
Where “and” joins values, the source holds several entries; their conditions need not be identical. Equal entries are not always repeated. Toxic doses and inconclusive results are not listed. Rule for the calls: active = survival T/C of 150% or more; inactive = T/C below 125% in these data.

System: CD2F1 mice, L1210 leukemia ip, survival T/C
Test: NCI In Vivo Anticancer Drug Screen. Data for tumor model L1210 Leukemia (intraperitoneal) in CD2F1 (CDF1) mice
Details: endpoint: mean survival time, higher = longer survival
Procedure, shortened: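 Read-out first: treated-group measurement over vehicle-control measurement, expressed as a ratio. Animals bore a transplanted tumor line and were dosed with compound or vehicle.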

[1] = dose: 100.0 mg/kg/injection, schedule: Q04DX003 (ip), vehicle: saline with Tween-80
[2] = dose: 200.0 mg/kg/injection, schedule: Q04DX003 (ip), vehicle: saline with Tween-80
[3] = dose: 75.0 mg/kg/injection, schedule: Q01DX001 (ip), vehicle: saline
[4] = dose: 100.0 mg/kg/injection, schedule: Q01DX009 (ip), vehicle: saline with Tween-80
[5] = dose: 12.5 mg/kg/injection, schedule: Q01DX009 (ip), vehicle: saline with Tween-80
[6] = dose: 25.0 mg/kg/injection, schedule: Q01DX009 (ip), vehicle: saline with Tween-80

Measured: T/C

CN(CCCOS(C)(=O)=O)CCCN(C)CCCOS(C)(=O)=O
inactive: dose: 10.0 mg/kg/injection, schedule: Q01DX001 (ip), vehicle: saline 115 % of control | dose: 20.0 mg/kg/injection, schedule: Q01DX001 (ip), vehicle: saline 107 % of control | dose: 40.0 mg/kg/injection, schedule: Q01DX001 (ip), vehicle: saline 115 % of control | dose: 60.0 mg/kg/injection, schedule: Q01DX001 (ip), vehicle: saline 124 % of control | dose: 80.0 mg/kg/injection, schedule: Q01DX001 (ip), vehicle: saline 115 % of control | dose: 100.0 mg/kg/injection, schedule: Q01DX001 (ip), vehicle: saline 117 % of control

Cc1c(N=Nc2ccc(N(C)C)cc2)cc[n+]([O-])c1C
inactive: [1] 102 % of control | [2] 110 % of control

CS(=O)(=O)N1CCCCC1
inactive: [3] 100 % of control

COC(=O)CCC(=O)N1C=Cc2ccccc2C1C#N (stereo unspecified)
inactive: [4] 98 % of control | [1] 95 % of control | dose: 200.0 mg/kg/injection, schedule: Q01DX009 (ip), vehicle: saline with Tween-80 102 % of control | [2] 95 % of control | dose: 400.0 mg/kg/injection, schedule: Q01DX009 (ip), vehicle: saline with Tween-80 102 % of control | dose: 400.0 mg/kg/injection, schedule: Q04DX003 (ip), vehicle: saline with Tween-80 90 % of control

Cn1c(=O)c2c(nc(Cl)n2Cc2ccccc2)n(C)c1=O
inactive: dose: 12.5 mg/kg/injection, schedule: Q01DX005 (ip), vehicle: saline with Tween-80 93 % of control | dose: 25.0 mg/kg/injection, schedule: Q01DX005 (ip), vehicle: saline with Tween-80 88 % of control | dose: 50.0 mg/kg/injection, schedule: Q01DX005 (ip), vehicle: saline with Tween-80 87 % of control | dose: 100.0 mg/kg/injection, schedule: Q01DX005 (ip), vehicle: saline with Tween-80 93 % of control

C1CC2CNC1CN2
inactive: dose: 100.0 mg/kg/injection, schedule: Q04DX003 (ip), vehicle: saline 96 % of control | dose: 200.0 mg/kg/injection, schedule: Q04DX003 (ip), vehicle: saline 98 % of control | dose: 400.0 mg/kg/injection, schedule: Q04DX003 (ip), vehicle: saline 94 % of control

CCC1(C)CCC2(C)C(CCC3C2CCCC3(C)CO)C1 (stereo unspecified)
inactive: dose: 100.0 mg/kg/injection, schedule: Q01DX001 (ip), vehicle: saline with Tween-80 94 % of control | dose: 200.0 mg/kg/injection, schedule: Q01DX001 (ip), vehicle: saline with Tween-80 88 % of control | dose: 400.0 mg/kg/injection, schedule: Q01DX001 (ip), vehicle: saline with Tween-80 96 % of control

Cc1cccc(OCCOC(=O)Nc2cccc(C(F)(F)F)c2)c1
inactive: dose: 90.0 mg/kg/injection, schedule: Q01DX009 (ip), vehicle: acetone 101 % of control | dose: 180.0 mg/kg/injection, schedule: Q01DX009 (ip), vehicle: acetone 103 % of control | dose: 360.0 mg/kg/injection, schedule: Q01DX009 (ip), vehicle: acetone 101 % of control

O=c1[nH]c(=O)n(C2OC(CO)C(O)C2O)o1 (stereo unspecified)
inactive: dose: 12.5 mg/kg/injection, schedule: Q01DX005 (ip), vehicle: water 93 % of control | dose: 25.0 mg/kg/injection, schedule: Q01DX005 (ip), vehicle: water 101 % of control | dose: 50.0 mg/kg/injection, schedule: Q01DX005 (ip), vehicle: water 90 % of control | dose: 100.0 mg/kg/injection, schedule: Q01DX005 (ip), vehicle: water 98 % of control | dose: 200.0 mg/kg/injection, schedule: Q01DX005 (ip), vehicle: water 96 % of control

CCOC1(C)CCC/C(=N/Nc2ccc([N+](=O)[O-])cc2[N+](=O)[O-])C1 (stereo unspecified)
inactive: dose: 100.0 mg/kg/injection, schedule: Q04DX003 (ip), vehicle: Klucel (hydroxypropylcellulose) (HPC) 97 % of control | dose: 200.0 mg/kg/injection, schedule: Q04DX003 (ip), vehicle: Klucel (hydroxypropylcellulose) (HPC) 100 % of control | dose: 400.0 mg/kg/injection, schedule: Q04DX003 (ip), vehicle: Klucel (hydroxypropylcellulose) (HPC) 100 % of control

CS(=O)(=O)c1nnc(S(C)(=O)=O)s1
inactive: dose: 3.0 mg/kg/injection, schedule: Q01DX009 (ip), vehicle: saline sonified 104 % of control | dose: 6.0 mg/kg/injection, schedule: Q01DX009 (ip), vehicle: saline sonified 102 % of control | dose: 12.0 mg/kg/injection, schedule: Q01DX009 (ip), vehicle: saline sonified 113 % of control | dose: 12.5 mg/kg/injection, schedule: Q04DX003 (ip), vehicle: saline sonified 104 % of control

O=C1C=CC(=O)N1c1ccc(Cl)cc1[N+](=O)[O-]
inactive: dose: 6.25 mg/kg/injection, schedule: Q04DX003 (ip), vehicle: saline with Tween-80 98 % of control | [5] 97 % of control | dose: 12.5 mg/kg/injection, schedule: Q04DX003 (ip), vehicle: saline with Tween-80 101 % of control | [6] 96 % of control | dose: 25.0 mg/kg/injection, schedule: Q04DX003 (ip), vehicle: saline with Tween-80 98 % of control

O=C(O)CCN(Cl)Cl
inactive: dose: 1.56 mg/kg/injection, schedule: Q01DX009 (ip), vehicle: saline 97 % of control | dose: 3.13 mg/kg/injection, schedule: Q01DX009 (ip), vehicle: saline 102 % of control | dose: 6.25 mg/kg/injection, schedule: Q01DX009 (ip), vehicle: saline 100 % of control

C=CCC(C)(C)/C=N/N
inactive: dose: 37.5 mg/kg/injection, schedule: Q01DX009 (ip), vehicle: saline 101 % of control | [3] 95 % of control | dose: 75.0 mg/kg/injection, schedule: Q01DX009 (ip), vehicle: saline 100 % of control | dose: 150.0 mg/kg/injection, schedule: Q01DX001 (ip), vehicle: saline 98 % of control | dose: 150.0 mg/kg/injection, schedule: Q01DX009 (ip), vehicle: saline 107 % of control

CC1(C)CCSC(/C=C/c2ccccc2)=N1
inactive: dose: 100.0 mg/kg/injection, schedule: Q01DX009 (ip), vehicle: other 101 % of control | dose: 200.0 mg/kg/injection, schedule: Q01DX009 (ip), vehicle: other 117 % of control | dose: 400.0 mg/kg/injection, schedule: Q01DX009 (ip), vehicle: other 109 % of control

CC(=O)C1=C(O)C2(O)C(=O)c3c(c(C)c4ccc(C)c(O)c4c3O)CC2C(N)C1=O (stereo unspecified)
inactive: dose: 3.75 mg/kg/injection, schedule: Q01DX009 (ip), vehicle: saline + alcohol 102 % of control and 105 % of control | dose: 7.3 mg/kg/injection, schedule: Q01DX009 (ip), vehicle: saline + alcohol 103 % of control | dose: 7.5 mg/kg/injection, schedule: Q01DX009 (ip), vehicle: saline + alcohol 107 % of control | dose: 15.0 mg/kg/injection, schedule: Q01DX009 (ip), vehicle: saline + alcohol 107 % of control and 108 % of control | dose: 30.0 mg/kg/injection, schedule: Q01DX009 (ip), vehicle: saline + alcohol 115 % of control | dose: 60.0 mg/kg/injection, schedule: Q01DX009 (ip), vehicle: saline + alcohol 107 % of control and 111 % of control

Cc1cc(NC(=O)NCc2ccc(N3C(N)=NC(N)=NC3(C)C)cc2)ccc1S(=O)(=O)F
inactive: [5] 101 % of control | [6] 106 % of control | dose: 50.0 mg/kg/injection, schedule: Q01DX009 (ip), vehicle: saline with Tween-80 104 % of control | [4] 123 % of control

CSc1nn(C2OC(COC(=O)c3ccccc3)C(OC(=O)c3ccccc3)C2OC(=O)c2ccccc2)c(=O)[nH]c1=S (stereo unspecified)
inactive: dose: 12.5 mg/kg/injection, schedule: Q01DX005 (ip), vehicle: distilled water + Tween-80 96 % of control | dose: 25.0 mg/kg/injection, schedule: Q01DX005 (ip), vehicle: distilled water + Tween-80 98 % of control | dose: 50.0 mg/kg/injection, schedule: Q01DX005 (ip), vehicle: distilled water + Tween-80 95 % of control | dose: 100.0 mg/kg/injection, schedule: Q01DX005 (ip), vehicle: distilled water + Tween-80 93 % of control | dose: 200.0 mg/kg/injection, schedule: Q01DX005 (ip), vehicle: distilled water + Tween-80 91 % of control

NC(CSC1(c2cccc3ccccc23)c2ccccc2-c2ccccc21)C(=O)O (stereo unspecified)
inactive: dose: 25.0 mg/kg/injection, schedule: Q01DX009 (ip), vehicle: saline 94 % of control | dose: 50.0 mg/kg/injection, schedule: Q01DX009 (ip), vehicle: saline 96 % of control | dose: 100.0 mg/kg/injection, schedule: Q01DX009 (ip), vehicle: saline 96 % of control | dose: 200.0 mg/kg/injection, schedule: Q01DX009 (ip), vehicle: saline 94 % of control | dose: 400.0 mg/kg/injection, schedule: Q01DX009 (ip), vehicle: saline 94 % of control
